Key:
[1] = molecular target: T1, recombinant 15-PGDH (Homo sapiens (Human), UniProt P15428); test: Melting temperature shift of recombinant 15-PGDH (SYPRO Orange); assay type: binding; details: Differential Scanning Fluorimetry; shifted from 50.5
[2] = molecular target: T1, recombinant 15-PGDH; test: Inhibition of enzymatic activity of recombinant 15-PGDH in vitro (NADH generation); assay type: biochemical
[3] = test system: 15-PGH-luciferase fusion protein reporter in the Vaco-9M (V9M) cell line; test: 15-PGDH-luciferase fusion reporter induction in V9M cells; assay type: cell-based
Method: Some residual activity is seen for isomer B when added at 3.2 μM concentration. The small residual activity of isomer A may be due to possible 3% contamination with some residual isomer B.

[4] = Chemical stability in aqueous solutions; assay type: physicochemical; details: broad pH range
[5] = test system: PGE2 in colon, bone marrow, liver, lung; test: PGE2 in mouse tissues after IP injection; assay type: in vivo; details: IP dose of 10 mg/kg body weight
Method: Shown is measurement by Elisa of PGE2 (ng PGE2/mg of tissue protein) from 4 mouse tissues: lung, liver, colon and bone marrow. […] Tissues were harvested for PGE2 assay at either 2 hour (2 h) or 3 hour (3 h) time points following drug injection.

[6] = Stability with rat liver extracts; assay type: in vitro ADME
[7] = test system: mice; test: Immediate toxicity after IP injection into mice; assay type: in vivo; details: over 24 hours; 50 mg/kg body weight IP
[8] = test system: mice; test: Homing of CFSE labeled donor bone marrow cells in lethally irradiated mice; assay type: in vivo, mouse; details: 10 mg/kg body weight
Method: Drugs are administered following radiation, following the transplant, and again at 8 hours after the transplant.

[9] = Stability with human liver extracts; assay type: in vitro ADME
[10] = Stability with mouse liver extracts; assay type: in vitro ADME

T1 sequence (P15428 whole entry): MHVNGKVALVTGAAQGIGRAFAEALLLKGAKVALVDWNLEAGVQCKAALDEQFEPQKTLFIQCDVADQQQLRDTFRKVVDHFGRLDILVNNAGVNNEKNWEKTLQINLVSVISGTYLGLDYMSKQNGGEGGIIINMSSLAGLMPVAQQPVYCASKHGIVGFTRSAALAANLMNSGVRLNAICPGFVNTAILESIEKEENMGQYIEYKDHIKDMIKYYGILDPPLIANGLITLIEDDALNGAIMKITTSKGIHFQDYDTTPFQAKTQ

Compound | melting temperature [1] | IC50 lower than the parent racemic mixture ([2]; vs racemic SW033291) | concentration for full activity [3] | chemical stability in aqueous solutions [4] | PGE2 levels in the colon, lung, liver and bone marrow [5] | stability when incubated with liver extracts [6] | immediate toxicity [7] | homing of hematopoietic stem cells following bone marrow transplantation [8] | stability when incubated with liver extracts [9] | concentration that inhibits recombinant 15-PGDH ([2]; enzyme concentration approximately 6 nM) | stability when incubated with liver extracts [10]
CCCC[S@](C)(O)c1sc2nc(-c3cccs3)cc(-c3ccccc3)c2c1N [SW033291 isomer B] | 68 °C | 40% | 0.1 µM |  |  |  |  |  |  |  | 
CCCC[S+]([O-])c1sc2nc(-c3nccs3)cc(-c3cnc(C)n3C)c2c1N (centres unmarked) [formula (XIII)] |  |  |  | chemically stable | elevates PGE2 levels | chemically stable | no immediate toxicity | increases homing | chemically stable | 3 nM | chemically stable
